Results taken from US10266548B2, “Substituted benzylindazoles for use as Bub1 kinase inhibitors in the treatment of hyperproliferative diseases” (Bayer Intellectual Property GmbH, priority 2011, dated 2019).
Structures can show the parent of a compound that is named as a salt. Where two headings read alike, the source gives them in different places.

Assays:
[1] = target: catalytic domain of human Bub1 (amino acids 704-1085) (Homo sapiens (Human), UniProt O43683); test: Bub1 kinase assay (TR-FRET); type: biochemical; details: 10 μM ATP, 1 μM peptide substrate; read-out: Biological Assay 1: Bub1 kinase assay median IC50
How it was run: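 Phosphoserine product detected by TR-FRET (Eu-labeled anti-mouse IgG/anti-phosphoserine antibody to streptavidin-XL665) after 1 h at 22 °C. IC50 from 4-parameter logistic fit.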

[2] = system: HeLa cells; test: Proliferation assay (HeLa cell line); type: cell-based; details: read-out: Biological Assay 2: Proliferation assay (HeLa cell line) median IC50
[3] = system: HeLa-MaTu-ADR cells; test: Proliferation assay (HeLa-MaTu-ADR cell line); type: cell-based; details: read-out: Biological Assay 2: Proliferation assay (HeLa-MaTu-ADR cell line) median IC50
Description: (§1) Cultivated tumor cells (cells were ordered from ATCC, except HeLa-MaTu and HeLa-MaTu-ADR, which were ordered from EPO-GmbH, Berlin) were plated at a density of 1000 to 5000 cells/well, depending on the growth rate of the respective cell line, in a 96-well multititer plate in 200 μL of their respective growth medium supplemented 10% fetal calf serum. After 24 hours, the cells of one plate (zero-point plate) were stained with crystal violet (see below), while the medium of the other plates was replaced by fresh culture medium (200 μl), to which the test substances were added in various concentrations (0 μM, as well as in the range of 0.001-10 μM; the final concentration of the solvent dimethyl sulfoxide was 0.5%). The cells were incubated for 4 days in the presence of test substances. Cell proliferation was determined by staining the cells with crystal violet: the cells were fixed by adding 20 μl/measuring point of an 11% glutaric aldehyde solution for 15 minutes at room temperature. After three washing cycles of the fixed cells with water, the plates were dried at room temperature. The cells were stained by adding 100 μl/measuring point of a 0.1% crystal violet solution (pH 3.0). After three washing cycles of the stained cells with water, the plates were dried at room temperature. The dye was dissolved by adding 100 μl/measuring point of a 10% acetic acid solution. […] The change of cell number, in percent, was calculated by normalization of the measured values to the aborbtion values of the zero-point plate (=0%) and the absorbtion of the untreated (0 μm) cells (=100%). The IC50 values were determined by means of a 4 parameter fit using the company's own software.

[4] = system: NCI-H460 cells; test: Proliferation assay (H460 cell line); type: cell-based; details: read-out: Biological Assay 2: Proliferation assay (H460 cell line) median IC50
Description: as §1

[5] = system: DU145 cells; test: Proliferation assay (DU145 cell line); type: cell-based; details: read-out: Biological Assay 2: Proliferation assay (DU145 cell line) median IC50
Description: as §1

[6] = system: Caco2 cells; test: Proliferation assay (Caco2 cell line); type: cell-based; details: read-out: Biological Assay 2: Proliferation assay (Caco2 cell line) median IC50
Description: as §1

[7] = system: B16F10 cells; test: Proliferation assay (B16F10 cell line); type: cell-based; details: read-out: Biological Assay 2: Proliferation assay (B16F10 cell line) median IC50
Description: as §1

[8] = Homo sapiens, 96 h, 4 days, crystal violet
[9] = HeLa-MaTu-ADR, 4 days, crystal violet
[10] = 96 h, HeLa-MaTu-ADR, 4 days, crystal violet
[11] = Homo sapiens, NCI-H460, 96 h, H460, 4 days, crystal violet
[12] = Homo sapiens, DU-145, 96 h, DU145, 4 days, crystal violet
[13] = Homo sapiens, Caco-2, 96 h, Caco2, 4 days, crystal violet
[14] = Mus musculus, B16-F10, 96 h, B16F10, 4 days, crystal violet

Sequence of catalytic domain of human Bub1 (amino acids 704-1085) (O43683 704-1085): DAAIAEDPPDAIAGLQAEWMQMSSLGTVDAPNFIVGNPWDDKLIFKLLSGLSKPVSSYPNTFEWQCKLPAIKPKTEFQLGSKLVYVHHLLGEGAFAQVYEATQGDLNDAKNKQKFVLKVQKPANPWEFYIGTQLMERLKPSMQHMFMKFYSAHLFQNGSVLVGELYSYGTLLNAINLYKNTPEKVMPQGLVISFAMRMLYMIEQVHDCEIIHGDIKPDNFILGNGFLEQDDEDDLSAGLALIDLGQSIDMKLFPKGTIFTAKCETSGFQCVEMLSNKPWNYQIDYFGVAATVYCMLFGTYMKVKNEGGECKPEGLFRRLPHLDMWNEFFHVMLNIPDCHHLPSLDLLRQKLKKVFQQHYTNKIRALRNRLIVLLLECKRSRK

SMILES | IC50 [1] [µM] | IC50 [2, 8] [µM] | IC50 [3, 9] [µM] | IC50 ([4]; H460, 4 days, crystal violet) [µM] | IC50 ([5]; DU145, 4 days, crystal violet) [µM] | IC50 ([6]; Caco2, 4 days, crystal violet) [µM] | IC50 ([7]; B16F10, 4 days, crystal violet) [µM] | IC50 ([2]; Homo sapiens, 96 h) [µM] | IC50 ([3]; 96 h) [µM] | IC50 ([4]; Homo sapiens, NCI-H460, 96 h) [µM] | IC50 ([5]; Homo sapiens, DU-145, 96 h) [µM] | IC50 ([6]; Homo sapiens, Caco-2, 96 h) [µM] | IC50 ([7]; Mus musculus, B16-F10, 96 h) [µM] | IC50 [3, 10] [µM] | IC50 [4, 11] [µM] | IC50 [5, 12] [µM] | IC50 [6, 13] [µM] | IC50 [7, 14] [µM] | IC50 ([2]; 4 days, crystal violet) [µM]
CCOc1cc(F)c(Cn2nc(-c3ncc(OC)c(Nc4ccncc4)n3)c3ccccc32)c(F)c1 [Example 15-1, 2-[1-(4-ethoxy-2,6-difluorobenzyl)-1H-indazol-3-yl]-5-methoxy-N-(pyridin-4-yl)pyrimidin-4-amine hydrochloride (1:1)] | 0.0052 | 1.4 | 1.2 | 2.2 | 1.2 | 1.2 | 0.76 |  |  |  |  |  |  |  |  |  |  |  | 
COc1cnc(-c2nn(Cc3c(F)cc(Br)cc3F)c3ccccc23)nc1Nc1ccncc1 [Example 2-12-1, 2-[1-(4-bromo-2,6-difluorobenzyl)-1H-indazol-3-yl]-5-methoxy-N-(pyridin-4-yl)pyrimidin-4-amine] | 0.0073 |  |  |  |  |  |  | 1.6 | 1.3 | 1.5 | 1.6 | 1.4 | 1.4 |  |  |  |  |  | 
COC(=O)c1ccc(CN(c2ccncc2)c2nc(-c3nn(Cc4ccc(C(=O)OC)cc4Cl)c4ccccc34)ncc2OC)c(Cl)c1 [Example 2-11-2, methyl 3-chloro-4-{[(2-{1-[2-chloro-4-(methoxycar-bonyl)benzyl]-1H-indazol-3-yl}-5-methoxypyrimidin-4-yl)(pyridin-4-yl)amino]methyl} benzoate] | 0.54 |  |  |  |  |  |  | 3.4 | 10 | 2.3 | 3.6 | 8 | 2.1 |  |  |  |  |  | 
CCOc1cc(F)c(Cn2nc(-c3ncc(OC(F)F)c(N(c4ccncc4)C(F)F)n3)c3ccccc32)c(F)c1 [Example 10-2] | 0.42 | 1.7 |  |  |  |  |  |  |  |  |  |  |  | 0.59 | 1.5 | 1.4 | 1.1 | 0.9 | 
CNC(=O)c1ccc(Cl)c(Cn2nc(-c3ncc(OC)c(Nc4ccncc4)n3)c3ccccc32)c1Cl [Example 20-1, 2,4-dichloro-3-({3-[5-methoxy-4-(pyridin-4-ylamino)pyrimidin-2-yl]-1H-indazol-1-yl}methyl)-N-methylbenzamide] | 0.2 | 0.19 |  |  |  |  |  |  |  |  |  |  |  | 3 | 3 | 3 | 3 | 2.4 | 
CCOc1cc(F)c(Cn2nc(-c3ncc(OCC4CNCCO4)c(Nc4ccncc4)n3)c3ccccc32)c(F)c1 (stereo not shown) [Example 38-2] | 0.0034 |  | 1.1 | 1.1 | 1.3 | 0.6 | 0.6 |  |  |  |  |  |  |  |  |  |  |  | 1.2
CCCc1ccc(Cn2nc(-c3ncc(OC)c(Nc4ccncc4)n3)c3ccccc32)cc1 [Example 2-25-1, 5-methoxy-2-[1-(4-propylbenzyl)-1H-indazol-3-yl]-N-(pyridin-4-yl)pyrimidin-4-amine] | 0.015 | 9.8 |  |  |  |  |  |  |  |  |  |  |  | 10 | 10 | 10 | 10 | 10 | 
OCC1(COc2cnc(-c3nn(Cc4ccccc4F)c4ccccc34)nc2Nc2ccncc2)COC1 [Example 4-2-1, {3[({2-[1-(2-fluorobenzyl)-1H-indazol-3-yl]-4-(pyridin-4-ylamino)pyrimidin-5-yl}oxy)methyl]oxetan-3-yl}methanol] | 0.0033 |  |  |  |  |  |  | 8.7 | 5.8 | 6.5 | 10 | 9.9 | 3.7 |  |  |  |  |  | 
COC(=O)c1ccc(Cn2nc(-c3ncc(OC)c(Nc4ccncc4)n3)c3ccccc32)c(Cl)c1 [Example 2-11-1, methyl 3-chloro-4-({3-[5-methoxy-4-(pyridin-4-ylamino)pyrimidin-2-yl]-1H-indazol-1-yl}methyl)benzoate] | 0.0071 | 0.29 |  |  |  |  |  |  |  |  |  |  |  | 3 | 3 | 3 | 3 | 2.9 | 
COc1cnc(-c2nn(Cc3c(F)c(F)c(OC)c(F)c3F)c3ccccc23)nc1Nc1ccncc1 [Example 2-24-1, 5-methoxy-N-(pyridin-4-yl)-2-[1-(2,3,5,6-tetrafluoro-4-methoxybenzyl)-1H-indazol-3-yl]pyrimidin-4-amine] | 0.014 |  |  |  |  |  |  | 3.1 | 1.3 | 2 | 1.3 | 1.5 | 1.4 |  |  |  |  |  | 
CCOc1cc(F)c(Cn2nc(-c3ncc(OCCN(C)C)c(Nc4ccncc4)n3)c3ccccc32)c(F)c1 [Example 4-8, 5-[2-(dimethyl-amino)ethoxy]-2-[1-(4-ethoxy-2,6-difluorobenzyl)-1H-indazol-3-yl]-N-(pyridin-4~ yl)pyrimidin-4-amine] | 0.008 |  |  |  |  |  |  | 1.3 | 0.36 | 1.1 | 1.2 | 0.76 | 0.57 |  |  |  |  |  | 
CN(C)CCOc1cnc(-c2nn(Cc3ccccc3F)c3ccccc23)nc1Nc1ccncc1 [Example 4-4, 5-[2-(dimethyl-amino)ethoxy]-2-[1-(2-fluorobenzyl)-1H-indazol-3-yl] N-(pyridin-4-yl)pyrimidin-4-amine] | 0.014 | 3.4 |  |  |  |  |  |  |  |  |  |  |  | 1.2 | 3.5 | 4.5 | 0.9 | 0.5 | 
C/C=C/c1cc(F)c(Cn2nc(-c3ncc(OC)c(Nc4ccncc4)n3)c3ccccc32)c(F)c1 [Example 6-2, 2-(1-{2,6-difluoro-4-[(1E)-prop-1-en-1-yl]benzyl}-1H-indazol-3-yl)-5-methoxy-N-(pyridin-4-yl)pyrimidin-4-amine] | 0.0074 |  |  |  |  |  |  | 1.4 | 1.6 | 1.7 | 1.4 | 1.2 | 1.1 |  |  |  |  |  | 
CCOc1cc(F)c(Cn2nc(-c3ncc(OCCO)c(Nc4ccncc4)n3)c3ccccc32)c(F)c1 [Example 13-1, 2-({2-[1-(4-ethoxy-2,6-difluorobenzyl)-1H-indazol-3-yl]-4-(pyridin-4-ylamino)pyrimidin-5-yl}oxy)ethanol] | 0.0033 | 1.5 |  |  |  |  |  |  |  |  |  |  |  | 1.3 | 1.3 | 1.6 | 1.2 | 0.79 | 
COc1cnc(-c2nn(Cc3cc4c(cc3Br)OCO4)c3ccccc23)nc1Nc1ccncc1 [Example 2-4-3, 2-{1-[(6-bromo-1,3-benzodioxol-5-yl)methyl]-1H-indazol-3-yl}-5-methoxy-N-(pyridin-4-yl)pyrimidin-4-amine] | 0.014 | 3.9 |  |  |  |  |  |  |  |  |  |  |  | 0.1 | 9 | 2.5 | 1.9 | 1.5 | 
CCOc1cc(F)c(Cn2nc(-c3ncc(OC[C@H]4CCC(=O)N4)c(Nc4ccncc4)n3)c3ccccc32)c(F)c1 [Example 4-19, (5R)-5-[({2-[1-(4-ethoxy-2,6-difluorobenzyl)-1H-indazol-3-yl]-4-(pyridin-4-ylamino)pyrimidin-5-yl}oxy)methyl] pyrrolidin-2-one] | 0.01 |  |  |  |  |  |  | 1.2 | 10 | 2.2 | 2.3 | 10 | 0.53 |  |  |  |  |  | 
